Data taken from EP0503079A1, “PYRIDAZINONE-SUBSTITUTED ETHYNYLPHENYL DERIVATIVE AND REMEDY FOR CIRCULATORY ORGAN DISEASE CONTAINING THE SAME AS ACTIVE INGREDIENT” (KAKEN PHARMACEUTICAL CO., LTD., priority 1990, dated 1992).

Columns and labels:
Slc-ddy male mice = experiment: Activity on hypoxia induced in decapitation of mice (gasping time); type: in vivo; design: dose or concentration left out as unconfirmed; settings: gasping time after decapitation, one hour after oral administration
Procedure: In each group, 3 Slc-ddy male mice (4 weeks) were employed. Each test compound was suspended or dissolved in a 0.5 % methyl cellulose solution. After the concentration was adjusted, the dose became […], the solution was administered orally. One hour after the administration, mice were decapitated and gasping time was measured.
(§1) Inhibition rate was calculated by the following formula. [formula]

[1] = system: Aortae abdominalis of male Wister rats; experiment: Anti-norepinephrine activity on rat abdominal aorta strip preparations (auto-Magnus apparatus); settings: tension by norepinephrine (10⁻⁷M) regarded as 100
Procedure: Aortae abdominalis of male Wister rats (8-12 weeks) were delivered and cut in spiral-shape to be strip preparations. Each test compounds was disolved in DMSO. Then, the solution was diluted with distilled water and prepared to be desired concentration. Using an auto-Magnus apparatus, as to the vasoconstriction after adding norepinephrine, contractive forces were measured under the existence of the test compounds.

platelet aggregation = experiment: Inhibitory activity on platelet aggregation (turbidimetry); type: cell-based, New Zealand White male rabbits; settings: for Inhibition rate (%) ADP aggregation: 0.6 µg/mℓ ADP; for Inhibition rate (%) PAF aggregation: 5 x 10⁻⁹M PAF; for Inhibition rate (%) Collagen aggregation: 2 µg/mℓ collagen
Procedure: Blood was exsanguinated from New Zealand White male rabbits weighing from 2.5 to 3.0 kg and subjected to the test. Each test compound was dissolved in ethanol and prepared to be 1 x 10⁻⁵, 1 x 10⁻⁶ or 1 x 10⁻⁷M respectively. Each aggregation response was measured by turbidimetry. Concentration of aggregating agent was 2 µg/mℓ of collagen, 0.6 µg/mℓ of adenosine 5'-diphosphate (ADP) or 5 x 10⁻⁹M of platelet aggregating factor (PAF).
as §1

Slc: ddy male mice = experiment: Activity on stress ulcers (restraint and water immersion); type: in vivo; settings: length of ulcer in glandular stomach; 30 mg/kg orally; restrained and immersed in water of 23°C for 7 hours
Procedure: In each group, 5 Slc: ddy male mice (6 weeks) were employed. Each test compound was kneaded with Tween-80 followed by adding a 0.5 % solution of gum arabic to prepare 30 mg/10 mℓ solution (solution containing 1.5 % Tween-80 and 0.5 % gum arabic). Then, the preparation was administered orally in a rate of 30 mg/kg. After the administration, the mice were restrained and immersed in a water tank of 23°C for 7 hours. Then, length of the ulcer in the glandular stomach was measured by a stereoscopic microscope (x 10).

| Compound | Inhibition rate (%) (Slc-ddy male mice) | Contractive force ([1]; compound 10⁻⁷ M) | Contractive force ([1]; compound 10⁻⁸ M) | Contractive force ([1]; compound 10⁻⁹ M) | Inhibition rate (%) ADP aggregation (platelet aggregation; compound 10⁻⁵ M) [%] | Inhibition rate (%) PAF aggregation (platelet aggregation; compound 10⁻⁵ M) [%] | Inhibition rate (%) ADP aggregation (platelet aggregation; compound 10⁻⁶ M) [%] | Inhibition rate (%) Collagen aggregation (platelet aggregation; compound 10⁻⁶ M) [%] | Inhibition rate (%) ADP aggregation (platelet aggregation; compound 10⁻⁷ M) [%] | Inhibition rate (%) Collagen aggregation (platelet aggregation; compound 10⁻⁷ M) [%] | Inhibition rate (%) (Slc: ddy male mice) |
| --- | --- | --- | --- | --- | --- | --- | --- | --- | --- | --- | --- |
| 2,6-dimethyl-3-methoxycarbonyl-5-{4-(6-oxo-1,4,5,6-tetrahydropyridazinon-3-yl)phenyl}aminocarbonyl-4-[3-{2-(4-nitro)phenyl)ethynyl]phenyl-1,4-dihydropyridine [Compound 4] | 13.2 | 13.2 | 71.5 | 93.2 | 91 | 64 | 58 | 92 | 22 | 24 | – |
| 2,6-dimethyl-3-methoxycarbonyl-5-{4-(6-oxo-1,4,5,6-tetrahydropyridazinon-3-yl)phenyl}aminocarbonyl-4-{3-(1-heptyn-1-yl)}phenyl-1,4-dihydropyridine [Compound 3] | – | 12.5 | 68.3 | 92.4 | 87 | 65 | 59 | 93 | 18 | 28 | – |
| 2,6-dimethyl-3-methoxycarbonyl-5-{4-(6-oxo-1,4,5,6-tetrahydropyridazinon-3-yl)phenyl}aminocarbonyl-4-{3-(6-morpholino-1-hexyn-1-yl)}phenyl-1,4-dihydropyridine [Compound 5] | 3.2 | – | – | – | 89 | 59 | 61 | 89 | 20 | 26 | – |
| 2,6-dimethyl-4-(3-ethynylphenyl)-3-methoxycarbonyl-5-{4-(4-methyl-6-oxo-1,4,5,6-tetrahydropyridazinon-3-yl)phenyl}aminocarbonyl-1,4-dihydropyridine [Compound 16] | 3.4 | 17.9 | 86.4 | 105.3 | 88 | 66 | 65 | 97 | 19 | 25 | – |
| 2,6-dimethyl-4-(3-ethynylphenyl)-3-methoxycarbonyl-5-{4-(5-methyl-6-oxo-1,4,5,6-tetrahydropyridazinon-3-yl)phenyl}aminocarbonyl-1,4-dihydropyridine [Compound 15] | 5.2 | 9.8 | 68.3 | 85.6 | 88 | 40 | 47 | 96 | 16 | 28 | 98.1 |
| 4-{3-(2-tert-butoxycarbonyl)ethynyl}phenyl-2,6-dimethyl-5-{4-(6-oxo-1,4,5,6-tetrahydropyridazinon-3-yl)phenyl}aminocarbonyl-3-methoxycarbonyl-1,4-dihydropyridine [Compound 8] | 12.8 | – | – | – | – | – | – | – | – | – | 75.4 |
| C#Cc1ccc(OC)c(C2C(C(=O)Nc3ccc(C4=NNC(=O)CC4)cc3)=C(C)NC(C)=C2C(=O)OCC)c1 (stereo not shown) [Compound 18, 2,6-dimethyl-4-(3-ethynyl-6-methoxyphenyl)-3-ethoxycarbonyl-5-{4-(6-oxo-1,4,5,6-tetrahydropyridazinon-3-yl)phenyl}aminocarbonyl-1,4-dihydropyridine] | – | 16.3 | 90.5 | 111.2 | 82 | 61 | 61 | 100 | 19 | 30 | – |
| C#Cc1cccc(C2C(C(=O)Nc3ccc(C4=NNC(=O)CC4CC)cc3)=C(C)NC(C)=C2C(=O)OC)c1 (stereo not shown) [Compound 19, 2,6-dimethyl-4-(3-ethynylphenyl)-5-{4-(4-ethyl-6-oxo-1,4,5,6-tetrahydropyridazinon-3-yl)phenyl} aminocarbonyl-3-methoxycarbonyl-1,4-dihydropyridine] | 5.6 | 14.9 | 84.9 | 101.1 | 83 | 38 | 63 | 91 | 20 | 28 | 92.6 |
| C#Cc1cccc(C2C(C(=O)Nc3ccc(C4=NNC(=O)CC4)cc3)=C(C)NC(C)=C2C(=O)OCC)c1 (stereo not shown) [Compound 20, 2,6-dimethyl-4-(3-ethynylphenyl)-3-ethoxycarbonyl-5-{4-(6-oxo-1,4,5,6-tetrahydropyridazinon-3-yl)phenyl}aminocarbonyl-1,4-dihydropyridine] | – | – | – | – | 93 | 70 | 68 | 95 | 20 | 23 | – |
| C#Cc1cccc(C2C(C(=O)Nc3ccc(C4=NNC(=O)CC4)cc3)=C(C)NC(C)=C2C(=O)OCCOC)c1 (stereo not shown) [Compound 22, 2,6-dimethyl-4-(3-ethynylphenyl)-3-methoxyethoxycarbonyl-5-{4-(6-oxo-1,4,5,6-tetrahydropyridazinon-3-yl)phenyl}aminocarbonyl-1,4-dihydropyridine] | – | – | – | – | 86 | 48 | 55 | 100 | 14 | 29 | – |
| C#Cc1cccc(C2C(C(=O)Nc3ccc(C4=NNC(=O)CC4C)cc3)=C(C)NC(N)=C2C(=O)OCC)c1 (stereo not shown) [Compound 23, 2-amino-4-(3-ethynylphenyl)-3-ethoxycarbonyl-6-methyl-5-{4-(6-oxo-4-methyl-1,4,5,6-tetrahydropyridazinon-3-yl)phenyl}aminocarbonyl-1,4-dihydropyridine] | – | – | – | – | 86 | 47 | 56 | 100 | 18 | 30 | 91.7 |
